What was measured:
[1] = test system: MC3T3-E1 preosteoblast cells; assay: Cell spreading area on modified surfaces (immunofluorescence analysis of cell morphology); type: cell-based, mouse
Experimental: The degree of cell spreading on a functionalized glass slide was measured by immunofluorescence analysis. After culture medium was removed, the slide was washed with PBS and then cells on the slide were fixed with 4% paraformaldehyde for 20 min. The slide was washed with PBS thrice and incubated for 5 min with 0.4% triton-X in PBS. Subsequently, the slide was washed with PBS thrice, followed by blocking with 3% bovine serum albumin (BSA) in PBS for 1 h at rt and then incubated with Alexa Fluor-555-conjugated anti-vinculin antibody (1:300 in PBS) overnight at 4 °C. The slide was washed with PBS thrice and incubated for 2 h with FITC-phalloidin (1:200 in PBS) and 4′-6-diamidino-2-phenylindole (DAPI) (5 μg/mL) for 10 min. The slide was washed with PBS thrice and its fluorescent images were collected on a confocal microscope (Nikon A1R, Japan).

[2] = test system: MC3T3-E1 preosteoblast cells; assay: Cell adhesion in a serum-free environment with enzyme-pretreated cells; type: cell-based, mouse; parameters: unit not given here; details: serum-free medium, 1 day
Experimental: Cells were detached and washed thrice with a serum-free medium. In order to examine the impact of cell membrane-tethered proteins on cell adhesion in a serum-free environment, cells were suspended and incubated at 37 °C for 20 min in 3 mL serum-free α-MEM medium that contains 0.307 U/mL plasmin, 10 U/mL collagenase (types I and II), 2 U/mL heparinase (types I, II, and III), or 10 U/mL hyaluronidase, respectively. The protease-treated cells were washed and suspended in a serum-free α-MEM to a final concentration of 1.5 × 10^5 cells/mL. An aliquot of 10 μL this cell suspension was added to each individual well (formed by a 50-well silicon coverslip on the top of a glass slide) that has bottom surface modified with DM50CO50, RGD, or KRSR, respectively, and then the slide was placed in a petri dish for incubation at 37 °C for 2 h for cell attachment. Then additional fresh medium was added into the petri dish to immerse the entire slide and the whole dish was incubated for 1 day. After removing the medium, cells were stained with a live/dead staining solution and the fluorescent images were captured under a microscope (Nikon Eclipse Ti-S, Japan) at different locations of each well. The collected images were analyzed using Image-pro plus software.

[3] = Control: untreated cells, value 1 of n = 9
[4] = Control: untreated cells, value 2 of n = 9
[5] = Control: untreated cells, value 3 of n = 9
[6] = Control: untreated cells, value 4 of n = 9
[7] = Control: untreated cells, value 5 of n = 9
[8] = Control: untreated cells, value 6 of n = 9
[9] = Control: untreated cells, value 7 of n = 9
[10] = Control: untreated cells, value 8 of n = 9
[11] = Control: untreated cells, value 9 of n = 9
[12] = cells pretreated with Collagenase 10 U/mL, value 1 of n = 9
[13] = cells pretreated with Collagenase 10 U/mL, value 2 of n = 9
[14] = cells pretreated with Collagenase 10 U/mL, value 3 of n = 9
[15] = cells pretreated with Collagenase 10 U/mL, value 4 of n = 9
[16] = cells pretreated with Collagenase 10 U/mL, value 5 of n = 9
[17] = cells pretreated with Collagenase 10 U/mL, value 6 of n = 9
[18] = cells pretreated with Collagenase 10 U/mL, value 7 of n = 9
[19] = cells pretreated with Collagenase 10 U/mL, value 8 of n = 9
[20] = cells pretreated with Collagenase 10 U/mL, value 9 of n = 9
[21] = cells pretreated with Heparinase 2 U/mL, value 1 of n = 9
[22] = cells pretreated with Heparinase 2 U/mL, value 2 of n = 9
[23] = cells pretreated with Heparinase 2 U/mL, value 3 of n = 9
[24] = cells pretreated with Heparinase 2 U/mL, value 4 of n = 9
[25] = cells pretreated with Heparinase 2 U/mL, value 5 of n = 9
[26] = cells pretreated with Heparinase 2 U/mL, value 6 of n = 9
[27] = cells pretreated with Heparinase 2 U/mL, value 7 of n = 9
[28] = cells pretreated with Heparinase 2 U/mL, value 8 of n = 9
[29] = cells pretreated with Heparinase 2 U/mL, value 9 of n = 9
[30] = cells pretreated with Hyaluronidase 10 U/mL, value 1 of n = 9
[31] = cells pretreated with Hyaluronidase 10 U/mL, value 2 of n = 9
[32] = cells pretreated with Hyaluronidase 10 U/mL, value 3 of n = 9
[33] = cells pretreated with Hyaluronidase 10 U/mL, value 4 of n = 9
[34] = cells pretreated with Hyaluronidase 10 U/mL, value 5 of n = 9
[35] = cells pretreated with Hyaluronidase 10 U/mL, value 6 of n = 9
[36] = cells pretreated with Hyaluronidase 10 U/mL, value 7 of n = 9
[37] = cells pretreated with Hyaluronidase 10 U/mL, value 8 of n = 9
[38] = cells pretreated with Hyaluronidase 10 U/mL, value 9 of n = 9
[39] = cells pretreated with Plasmin 0.307 U/mL, value 1 of n = 9
[40] = cells pretreated with Plasmin 0.307 U/mL, value 2 of n = 9
[41] = cells pretreated with Plasmin 0.307 U/mL, value 3 of n = 9
[42] = cells pretreated with Plasmin 0.307 U/mL, value 4 of n = 9
[43] = cells pretreated with Plasmin 0.307 U/mL, value 5 of n = 9
[44] = cells pretreated with Plasmin 0.307 U/mL, value 6 of n = 9
[45] = cells pretreated with Plasmin 0.307 U/mL, value 7 of n = 9
[46] = cells pretreated with Plasmin 0.307 U/mL, value 8 of n = 9
[47] = cells pretreated with Plasmin 0.307 U/mL, value 9 of n = 9

KRSRGYC
Cell area of preosteoblast cells ([1]; cultured on modified surface for 3 h, replicate 1): 2526
Cell area of preosteoblast cells ([1]; cultured on modified surface for 3 h, replicate 2): 2456
Cell area of preosteoblast cells ([1]; cultured on modified surface for 3 h, replicate 3): 2659
Cell area of preosteoblast cells ([1]; cultured on modified surface for 24 h, replicate 1): 4026
Cell area of preosteoblast cells ([1]; cultured on modified surface for 24 h, replicate 2): 4102
Cell area of preosteoblast cells ([1]; cultured on modified surface for 24 h, replicate 3): 4230
Cell density (figure 6c) [2, 3]: 96
Cell spreading area (figure 6b) [2, 3]: 2152
Cell density (figure 6c) [2, 4]: 95
Cell spreading area (figure 6b) [2, 4]: 2263
Cell density (figure 6c) [2, 5]: 98
Cell spreading area (figure 6b) [2, 5]: 2236
Cell density (figure 6c) [2, 6]: 96
Cell spreading area (figure 6b) [2, 6]: 2265
Cell density (figure 6c) [2, 7]: 96
Cell spreading area (figure 6b) [2, 7]: 2150
Cell density (figure 6c) [2, 8]: 90
Cell spreading area (figure 6b) [2, 8]: 2154
Cell density (figure 6c) [2, 9]: 96
Cell spreading area (figure 6b) [2, 9]: 2365
Cell density (figure 6c) [2, 10]: 89
Cell spreading area (figure 6b) [2, 10]: 2263
Cell density (figure 6c) [2, 11]: 98
Cell spreading area (figure 6b) [2, 11]: 2153
Cell density (figure 6c) [2, 12]: 92
Cell spreading area (figure 6b) [2, 12]: 2270.3
Cell density (figure 6c) [2, 13]: 92
Cell spreading area (figure 6b) [2, 13]: 2036
Cell density (figure 6c) [2, 14]: 89
Cell spreading area (figure 6b) [2, 14]: 2011.4
Cell density (figure 6c) [2, 15]: 88
Cell spreading area (figure 6b) [2, 15]: 2163
Cell density (figure 6c) [2, 16]: 95
Cell spreading area (figure 6b) [2, 16]: 2200
Cell density (figure 6c) [2, 17]: 89
Cell spreading area (figure 6b) [2, 17]: 2110.4
Cell density (figure 6c) [2, 18]: 98
Cell spreading area (figure 6b) [2, 18]: 2163
Cell density (figure 6c) [2, 19]: 90
Cell spreading area (figure 6b) [2, 19]: 2145
Cell density (figure 6c) [2, 20]: 90
Cell spreading area (figure 6b) [2, 20]: 2068
Cell density (figure 6c) [2, 21]: 83
Cell spreading area (figure 6b) [2, 21]: 1652
Cell density (figure 6c) [2, 22]: 81
Cell spreading area (figure 6b) [2, 22]: 1526.5
Cell density (figure 6c) [2, 23]: 76
Cell spreading area (figure 6b) [2, 23]: 1753
Cell density (figure 6c) [2, 24]: 75
Cell spreading area (figure 6b) [2, 24]: 1586.3
Cell density (figure 6c) [2, 25]: 82
Cell spreading area (figure 6b) [2, 25]: 1632
Cell density (figure 6c) [2, 26]: 72
Cell spreading area (figure 6b) [2, 26]: 1552.3
Cell density (figure 6c) [2, 27]: 85
Cell spreading area (figure 6b) [2, 27]: 1596.3
Cell density (figure 6c) [2, 28]: 68
Cell spreading area (figure 6b) [2, 28]: 1550
Cell density (figure 6c) [2, 29]: 83
Cell spreading area (figure 6b) [2, 29]: 1620
Cell density (figure 6c) [2, 30]: 94
Cell spreading area (figure 6b) [2, 30]: 2270.3
Cell density (figure 6c) [2, 31]: 93
Cell spreading area (figure 6b) [2, 31]: 1990.3
Cell density (figure 6c) [2, 32]: 84
Cell spreading area (figure 6b) [2, 32]: 2011.4
Cell density (figure 6c) [2, 33]: 93
Cell spreading area (figure 6b) [2, 33]: 1892.3
Cell density (figure 6c) [2, 34]: 89
Cell spreading area (figure 6b) [2, 34]: 2309.4
Cell density (figure 6c) [2, 35]: 95
Cell spreading area (figure 6b) [2, 35]: 2110.4
Cell density (figure 6c) [2, 36]: 90
Cell spreading area (figure 6b) [2, 36]: 2409.4
Cell density (figure 6c) [2, 37]: 89
Cell spreading area (figure 6b) [2, 37]: 1909
Cell density (figure 6c) [2, 38]: 90
Cell spreading area (figure 6b) [2, 38]: 1893
Cell density (figure 6c) [2, 39]: 89
Cell spreading area (figure 6b) [2, 39]: 2136
Cell density (figure 6c) [2, 40]: 90
Cell spreading area (figure 6b) [2, 40]: 2153.4
Cell density (figure 6c) [2, 41]: 91
Cell spreading area (figure 6b) [2, 41]: 2145
Cell density (figure 6c) [2, 42]: 94
Cell spreading area (figure 6b) [2, 42]: 2033
Cell density (figure 6c) [2, 43]: 93
Cell spreading area (figure 6b) [2, 43]: 2312.4
Cell density (figure 6c) [2, 44]: 78
Cell spreading area (figure 6b) [2, 44]: 2019.3
Cell density (figure 6c) [2, 45]: 90
Cell spreading area (figure 6b) [2, 45]: 2036
Cell density (figure 6c) [2, 46]: 94
Cell spreading area (figure 6b) [2, 46]: 2435.5
Cell density (figure 6c) [2, 47]: 91
Cell spreading area (figure 6b) [2, 47]: 2135
